From patent US20220241311A1, “METHODS AND MATERIALS FOR TREATING GLYCOSYLATION DISORDERS” (priority 2018, published 2022)
“Also recorded” adds a separate entry of the source.

How the values were obtained:
[1] = system: PGM1-CDG patients; test: Oral D-gal supplementation: laboratory studies in blood (liver transaminases, coagulation, glycoproteins, CK, glucose); assay type: in vivo, human
From the text: The study design was an open-label prospective study. Patients with biochemically and genetically confirmed PGM1 deficiency were recruited into the study. Individuals with an existing diagnosis of aldolase B deficiency, galactosemia, hemolytic uremic syndrome, severe anemia, galactose intolerance, or intellectual disability were excluded from the study. Nine patients were enrolled in the study, five females and four males. Patient age ranged from 19 months to 21 years old at the time of enrollment (mean age 9.75 years). Informed written consent was obtained before the start of study. A primary end-point was to assess the safety and tolerability of oral D-gal supplementation and to identify physiological biomarkers that are responsive to D-gal supplementation in a heterogeneous genetic background. The effect of D-gal in PGM1-CDG patients was also monitored via glycomics. Secondary endpoints were the restoration of the plasma glycan subfractions, monitored via glycomics (Table 3), and normalization of antithrombin III activity and serum alanine transaminase (ALT) levels.
The D-gal intake was increased over the study period in increments as follows: weeks 0-6 (T0-T1), 0.5 g/kg per day; weeks 6-12 (T1-T2), 1.0 g/kg per day; weeks 12-18 (T2-T3), 1.5 g/kg per day (FIG. 2). The intake was increased gradually to reach the recommended maximum daily dose with minimal gastrointestinal irritation (diarrhea, stomachache, nausea) and metabolic side effects (presence of urinary galactitol).
Dietary assessment, clinical evaluation (general physical examination and anthropometric measurements), and laboratory and biochemical studies were completed every 6 weeks (T0, T1, T2 and T3).
Liver transaminases (aspartate transaminase (AST) and alanine transaminase (ALT)), creatine kinase (CK), commonly assayed glycoproteins (thyroid stimulating hormone (TSH), thyroxine-binding globulin (TBG), and insulin-like growth factor binding protein 3 (IGF3BP)), and coagulation parameters (Factor IX, Factor XI, activated […] (aPTT), and anti-thrombin III (ATIII)), were measured in blood. Patent 1 had additional Factor XI, and XIII measurements. Serum galactose-1-phosphate and urine galactitol were measured to monitor safety and tolerability of galactose supplementation. Biochemical studies to evaluate changes in glycosylation included isoelectric focusing (IEF) of serum transferrin and glycomic analysis in blood by mass spectrometry.
Patient 1 remained on D-gal 1 g/kg/day after the study period as D-gal is the only currently available compassionate treatment for PGM1-CDG. The parameters monitored during the study period, including additional coagulation factor measurements, have been followed as part of routine care (Table 4).
Quantitative data are presented as the mean±standard error of the mean.

[2] = system: PGM1-CDG fibroblasts; test: Galactose supplementation of PGM1-CDG fibroblasts, tracer based metabolomics; assay type: cell-based, human
Experimental: To probe the biochemical basis to galactose treatment, a tracer based metabolomics was employed to simultaneously track the activity of multiple pathways. Control and PGM1-CDG fibroblasts were cultured with 13C tagged glucose, with and without galactose. The 13C tracer was then incorporated into connected pathways after which, the cells were harvested to enable detection of metabolites by the mass-spectrometry.

[3] = cited from earlier work
[4] = system: ICAM-1; test: ICAM-1 Western blotting with galactose supplementation, healthy cells
[5] = system: ICAM-1; test: ICAM-1 Western blotting with galactose supplementation, patient skin fibroblasts; conditions: patient 5; all doses
[6] = patient 1, 1 g/kg/day for additional 12 months
[7] = 2 mM galactose added to the culture medium for 5 days

Compound: O=C[C@H](O)[C@@H](O)[C@@H](O)[C@H](O)CO [D-gal, D-galactose]
- ALT levels ([1]; T0 to T2, p=0.05): significantly decreased
- ATIII, T0 vs T3 ([1]; all patient data, P=0.020): significant difference
- AST ([1]; all patients except patient 2, 18 weeks): did not normalize at 18 weeks, it fell below baseline
- AST ([1]; all patients, 6 weeks): moderately declined
- AST ([1]; all patients, 12 weeks vs baseline): declined by 23% to more than 10-fold
- Creatine kinase and glucose levels ([1]; during the study): fluctuated and remained abnormal
- Frequency of hypoglycemic episodes ([1]; during the study): decreased significantly in four patients
- Laboratory parameters at 1.5 g/kg/day compared to 1 g/kg/day ([1]; last 6 weeks of the trial): did not lead to significant improvement
- ALT, aPTT, ATIII, TSH, TBG, long-term [1, 6]: remained stable
- Factor XI and Factor XIII, long-term [1, 6]: returned to before-treatment levels
- ATIII ([1]; patient 1, 18 weeks): remained within normal range
- Factor XI ([1]; patient 1, after 12-18 weeks): normalized
- Factor XIII ([1]; patient 1, after 12-18 weeks): normalized
- Creatine kinase decrease, long-term ([1]; patient 1, over the course of one year): ~80%
- TSH ([1]; patient 2 (abnormal baseline)): normalized at 18 weeks
- ATIII vs baseline ([1]; patient 2, 18 weeks): twofold higher than baseline
- AST ([1]; patient 2, 18 weeks, after discontinuing galactose for 2 weeks): spiked upwards, almost reaching baseline
- ALT, excess over baseline ([1]; patient 2, 18 weeks, intercurrent illness): 18%
- ATIII drop ([1]; patient 2, following illness and cessation of galactose intake): 30%
- IGFBP-3 ([1]; patient 3): normalized at 18 weeks
- TSH ([1]; patient 5 (abnormal baseline)): normalized at 6 weeks and remained stable at 12 and 18 weeks
- ALT decrease ([1]; patient 5, 6 weeks): 43%
- ATIII ([1]; patient 5, 6 weeks): transiently normalized
- ALT above the upper limit of normal ([1]; patient 5, 12 and 18 weeks): 3%
- ATIII below the lower limit of normal ([1]; patient 5, 12 and 18 weeks): 8%
- IGFBP-3 ([1]; patient 6, 12 weeks): slight improvement
- IGFBP-3 below the lower limit of normal ([1]; patient 6, 12 weeks): about 50%
- TBG below the lower limit of normal ([1]; patient 6, 12 weeks): 8%
- TBG improvement ([1]; patient 6, 12 weeks): 30%
- TBG higher than the upper limit of normal ([1]; patient 9, 18 weeks): 80%
- TBG decline ([1]; patient 9, 18 weeks, baseline twofold the upper limit of normal): 12%
- ALT ([1]; patients 1, 2, 4, 7 (abnormal baseline)): normalized at 6 or 12 weeks
- Factor IX levels ([1]; patients 1, 2, 5, 6, 9, 18 weeks): remained normal
- IGFBP-3 ([1]; patients 1 and 2): normalized at 12 weeks and remained stable at 18 weeks
- TBG ([1]; patients 1 and 2): normalized at 6 weeks and remained stable at 12 and 18 weeks
- ATIII ([1]; patients 1 and 2, 12 weeks): normalized
- aPTT ([1]; patients 1 and 7 (abnormal baseline)): normalized at 6 and 12 weeks, respectively
- aPTT ([1]; patients 2, 3, 5, 6 (normal baseline)): remained stable
- Cellular UDP-hexose pools [2, 7]: significant increase
- Cellular glycosylation [2, 7]: improved cellular glycosylation
- Levels of UDP-glucose and UDP-galactose ([2]; culture media supplemented with galactose): restored depleted levels; also recorded: significantly increased
- Glycosylation ([2]; culture supplemented with galactose): restarted stalled glycosylation
- Peak concentration of D-gal in blood ([3]; 1.0 g/kg dose): 2.25 mM
- Blood concentration of D-gal ([3]; oral dose of 0.3 g/kg): 750 µM
- Blood peak concentration ([3]; oral dose of 1.5 g/kg): 3.5 mM
- ICAM-1 expression [4]: no effect
- ICAM-1 expression [5]: No improvement
